This is an account of results in patent publication US20250145601A1, “NOVEL BICYCLIC COMPOUNDS AS RAD51 INHIBITORS” (SATYA THERAPEUTICS, INC., priority 2022, published 2025).

Each structure is given as a SMILES string.

The test has as its system MDA MB 231 cells. The experiment in a line: Antiproliferation assay in MDA MB 231 cells (Cell Titer Glo). The format is cell-based. To be noted: Homo sapiens, MDA-MB-231, 216 h, MDAMB231 cell line, 9 day treatment, racemic compounds (Table 2). The procedure: Antiproliferation Assay in MDA MB 231 Cells MDA MB 231 cells were seeded in 96 well plate at a seeding density of 250 cells/well. The cells were allowed to settle overnight under standard incubator conditions (37° C., 5% CO2). Next day treatment with increasing dose of test compounds and reference compounds were done to the respective wells and the cells were further incubated under standard cell culture conditions for another 4 days. On the 5th day, media was replenished with fresh treatment and cells were incubated for a total of 9 day treatment period. On the day of termination, appropriate volume of Cell Titer Glo reagent was added to the treatment (and control) wells and the plates were kept on a plate shaker @300 RPM for 15 min. Luminiscence reading (RLU) was […] RLU is directly proportional to ATP content and is directly related to number of metabolically active cells in the respective well. Calculation: a. Blank Correction: RLU of the Wells Containing No Cells is Considered as Blank and Subtracted from all RLU of the Treated and Control Wells [formula]
On to `CCC(=O)N1N=C(c2c(C)c3ccccc3[nH]c2=O)CC1c1cn(C)c2ccccc12` (stereo not drawn) [Example 12, 4-Methyl-3-(5-(1-methyl-1H-indol-3-yl)-1-propionyl-4,5-dihydro-1H-pyrazol-3-yl)quinolin-2(1H)-one], for which the inhibition (commonly the drop in the measured response relative to a control, in per cent) at 10 µM was at least 50%.

`CCC(=O)N1N=C(c2c(C)c3cccnc3[nH]c2=O)CC1c1ccc(OC)cc1` (stereo not drawn) [Example 13, 3-(5-(4-Methoxyphenyl)-1-propionyl-4,5-dihydro-1H-pyrazol-3-yl)-4-methyl-1,8-naphthyridin-2(1H)-one] gave an inhibition at 10 µM of at least 50%.

`CCC(=O)N1N=C(c2c(C)c3cncnc3[nH]c2=O)CC1c1ccc(OC)cc1` (stereo not drawn) [Example 14, 6-(5-(4-Methoxyphenyl)-1-propionyl-4,5-dihydro-1H-pyrazol-3-yl)-5-methylpyrido-[2,3-d]pyrimidin-7(8H)-one] registered an inhibition at 10 µM below 50%.

In the case of `CCC(=O)N1N=C(c2c(C)c3cc(Br)ccc3[nH]c2=O)CC1c1ccc(OC)cc1` (stereo not drawn) [Example 15, 6-bromo-3-(5-(4-methoxyphenyl)-1-propionyl-4,5-dihydro-1H-pyrazol-3-yl)-4-methylquinolin-2(1H)-one], the inhibition at 10 µM was at least 50%.

`CCC(=O)N1N=C(c2c(C)c3nc(Cl)ccc3[nH]c2=O)CC1c1ccc(OC)cc1` (stereo not drawn) [Example 16, 6-chloro-3-(5-(4-methoxyphenyl)-1-propionyl-4,5-dihydro-1H-pyrazol-3-yl)-4-methyl-1,5-naphthyridin-2(1H)-one] registered an inhibition at 10 µM of at least 50%.

As for `CCC(=O)N1N=C(c2cc3cc(Cl)ccc3[nH]c2=O)CC1c1ccc(OC)cc1` (stereo not drawn) [Example 17, 6-Chloro-3-(5-(4-methoxyphenyl)-1-propionyl-4,5-dihydro-1H-pyrazol-3-yl)quinolin-2(1H)-one], the inhibition at 10 µM was at least 50%.

As for `CCC(=O)N1N=C(c2c(C)c3cc(Cl)ccc3n(C)c2=O)CC1c1ccc(OC)cc1` (stereo not drawn) [Example 18, 6-chloro-3-(5-(4-methoxyphenyl)-1-propionyl-4,5-dihydro-1H-pyrazol-3-yl)-1,4-dimethylquinolin-2(1H)-one], the inhibition at 10 µM is below 50%.

Consider `CCC(=O)N1N=C(c2c(=O)[nH]cc3ccccc23)CC1c1ccc(OC)cc1` (stereo not drawn) [Example 19, 4-(5-(4-methoxyphenyl)-1-propionyl-4,5-dihydro-1H-pyrazol-3-yl)isoquinolin-3(2H)-one], for which the inhibition at 10 µM was below 50%.

With `CCC(=O)N1N=C(c2c(C)c3ccsc3[nH]c2=O)CC1c1ccc(OC)nc1` (stereo not drawn) [Example 21, 5-(5-(6-methoxypyridin-3-yl)-1-propionyl-4,5-dihydro-1H-pyrazol-3-yl)-4-methylthieno[2,3-b]pyridin-6(7H)-one], the inhibition at 10 µM is at least 50%.

For `CCC(=O)N1N=C(c2cc3ccsc3[nH]c2=O)CC1c1ccc(OC)cc1` (stereo not drawn) [Example 22, 5-(5-(4-methoxyphenyl)-1-propionyl-4,5-dihydro-1H-pyrazol-3-yl)thieno[2,3-b]pyridin-6(7H)-one], the inhibition at 10 µM is at least 50%.

`CCC(=O)N1N=C(c2c(C3CC3)c3cc(Cl)ccc3[nH]c2=O)CC1c1ccc(OC)cc1` (stereo not drawn) [Example 23, 6-chloro-4-cyclopropyl-3-(5-(4-methoxyphenyl)-1-propionyl-4,5-dihydro-1H-pyrazol-3-yl)quinolin-2(1H)-one] gave an inhibition at 10 µM of at least 50%.

`CCC(=O)N1N=C(c2c(C)c3cc(Cl)ccc3[nH]c2=O)CC1c1cn(C)c2ccccc12` (stereo not drawn) [Example 24, 6-chloro-4-methyl-3-(5-(1-methyl-1H-indol-3-yl)-1-propionyl-4,5-dihydro-1H-pyrazol-3-yl)quinolin-2(1H)-one] returned an inhibition at 10 µM of at least 50%.

In turn, `CCC(=O)N1N=C(c2c(C)c3ccsc3[nH]c2=O)CC1c1ccc(OC)cn1` (stereo not drawn) [Example 25, 5-(5-(5-methoxypyridin-2-yl)-1-propionyl-4,5-dihydro-1H-pyrazol-3-yl)-4-methylthieno[2,3-b]pyridin-6(7H)-one] returned an inhibition at 10 µM below 50%.

For `CCC(=O)N1N=C(c2c(C)c3ccsc3[nH]c2=O)CC1c1ccc(=O)[nH]c1` (stereo not drawn) [Example 26, 4-methyl-5-(5-(6-oxo-1,6-dihydropyridin-3-yl)-1-propionyl-4,5-dihydro-1H-pyrazol-3-yl)thieno[2,3-b]pyridin-6(7H)-one], the inhibition at 10 µM was below 50%.

For the compound `CCC(=O)N1N=C(c2c(C)c3ccsc3[nH]c2=O)CC1c1ccc(OC)s1` (stereo not drawn) [Example 29, 5-(5-(5-methoxythiophen-2-yl)-1-propionyl-4,5-dihydro-1H-pyrazol-3-yl)-4-methylthieno[2,3-b]pyridin-6(7H)-one], the inhibition at 10 µM is at least 50%.

`CCC(=O)N1N=C(c2c(C)c3ccsc3[nH]c2=O)CC1c1cnc(OC)s1` (stereo not drawn) [Example 30, 5-(5-(2-methoxythiazol-5-yl)-1-propionyl-4,5-dihydro-1H-pyrazol-3-yl)-4-methylthieno[2,3-b]pyridin-6(7H)-one] displayed an inhibition at 10 µM of at least 50%.

`CCC(=O)N1N=C(c2c(C)c3ccsc3[nH]c2=O)CC1c1csc(Br)c1` (stereo not drawn) [Example 31, 5-(5-(5-bromothiophen-3-yl)-1-propionyl-4,5-dihydro-1H-pyrazol-3-yl)-4-methylthieno[2,3-b]pyridin-6(7H)-one] registered an inhibition at 10 µM below 50%.

As for `CCC(=O)N1N=C(c2c(C)c3ccsc3[nH]c2=O)CC1c1ccccc1` (stereo not drawn) [Example 32, 4-methyl-5-(5-phenyl-1-propionyl-4,5-dihydro-1H-pyrazol-3-yl)thieno[2,3-b]pyridin-6(7H)-one], the inhibition at 10 µM was below 50%.

Take `CCC(=O)N1N=C(c2c(C)c3ccsc3[nH]c2=O)CC1c1cc(Br)cs1` (stereo not drawn) [Example 34, 5-(5-(4-bromothiophen-2-yl)-1-propionyl-4,5-dihydro-1H-pyrazol-3-yl)-4-methylthieno[2,3-b]pyridin-6(7H)-one]: the inhibition at 10 µM is below 50%.

As to `CCC(=O)N1N=C(c2c(C)c3ccsc3[nH]c2=O)CC1c1ccncc1` (stereo not drawn) [Example 35, 4-methyl-5-(1-propionyl-5-(pyridin-4-yl)-4,5-dihydro-1H-pyrazol-3-yl)thieno[2,3-b]pyridin-6(7H)-one], the inhibition at 10 µM was below 50%.

As for `CCC(=O)N1N=C(c2c(C)c3ccsc3[nH]c2=O)CC1c1cccnc1` (stereo not drawn) [Example 36, 4-methyl-5-(1-propionyl-5-(pyridin-3-yl)-4,5-dihydro-1H-pyrazol-3-yl)thieno[2,3-b]pyridin-6(7H)-one], the inhibition at 10 µM was below 50%.

In turn, `CCC(=O)N1N=C(c2c(C)c3ccsc3[nH]c2=O)CC1c1ccc(N2CCN(C)CC2)cc1` (stereo not drawn) [Example 38, 4-methyl-5-(5-(4-(4-methylpiperazin-1-yl)phenyl)-1-propionyl-4,5-dihydro-1H-pyrazol-3-yl)thieno[2,3-b]pyridin-6(7H)-one] registered an inhibition at 10 µM of at least 50%.

As to `CCC(=O)N1N=C(c2c(C)c3ccsc3[nH]c2=O)CC1c1ccc(N(C)C)cc1` (stereo not drawn) [Example 39, 5-(5-(4-(dimethylamino)phenyl)-1-propionyl-4,5-dihydro-1H-pyrazol-3-yl)-4-methylthieno[2,3-b]pyridin-6(7H)-one], the inhibition at 10 µM is at least 50%.

`CCC(=O)N1N=C(c2c(C)c3c(Cl)csc3[nH]c2=O)CC1c1ccc(OC)cc1` (stereo not drawn) [Example 40, 3-chloro-5-(5-(4-methoxyphenyl)-1-propionyl-4,5-dihydro-1H-pyrazol-3-yl)-4-methylthieno[2,3-b]pyridin-6(7H)-one]: the inhibition at 10 µM is below 50%.
